Measurements: patent US8192962B2, “Processes for detecting toxic substances” (Daikin Industries, Ltd., priority 2001, dated 2012)

Test system: Unknown protein yeast genes
Assay: DNA chip mRNA expression in yeast, unknown protein yeast genes (Table 1)
Format: cell-based, Saccharomyces cerevisiae S288C
Summary of the method: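 S. cerevisiae S288C grown at 25° C. in YPD to log phase, then exposed 2 h to a toxicant at a growth-inhibiting, non-lethal concentration; untreated cells as control. Poly(A) mRNA reverse-transcribed with Cy3-dUTP or Cy5-dUTP, hybridized >12 h at 65° C. to whole-genome yeast DNA chip; value = fluorescence ratio treated/untreated.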

**Q.** What does the source list for “manganese ethylenebis(dithiocarbamate) [(8)]”?
**A.** The level of expressed mRNA in the presence of chemical substance/The level of expressed mRNA in the absence of chemical substance (yeast gene YKL195W, incubated two hours with chemical substance): 1.2; The level of expressed mRNA in the presence of chemical substance/The level of expressed mRNA in the absence of chemical substance (yeast gene YKR091W, incubated two hours with chemical substance): 1.3; The level of expressed mRNA in the presence of chemical substance/The level of expressed mRNA in the absence of chemical substance (yeast gene YLR054C, incubated two hours with chemical substance): 1.1; The level of expressed mRNA in the presence of chemical substance/The level of expressed mRNA in the absence of chemical substance (yeast gene YLR149C, incubated two hours with chemical substance): 1.1; The level of expressed mRNA in the presence of chemical substance/The level of expressed mRNA in the absence of chemical substance (yeast gene YLR152C, incubated two hours with chemical substance): 1.2; The level of expressed mRNA in the presence of chemical substance/The level of expressed mRNA in the absence of chemical substance (yeast gene YLR194C, incubated two hours with chemical substance): 1.0; The level of expressed mRNA in the presence of chemical substance/The level of expressed mRNA in the absence of chemical substance (yeast gene YLR324W, incubated two hours with chemical substance): 1.0; The level of expressed mRNA in the presence of chemical substance/The level of expressed mRNA in the absence of chemical substance (yeast gene YLR350W, incubated two hours with chemical substance): 1.0; The level of expressed mRNA in the presence of chemical substance/The level of expressed mRNA in the absence of chemical substance (yeast gene YLR387C, incubated two hours with chemical substance): 1.4; The level of expressed mRNA in the presence of chemical substance/The level of expressed mRNA in the absence of chemical substance (yeast gene YLR460C): 8.1; The level of expressed mRNA in the presence of chemical substance/The level of expressed mRNA in the absence of chemical substance (yeast gene YML117W, incubated two hours with chemical substance): 0.7; The level of expressed mRNA in the presence of chemical substance/The level of expressed mRNA in the absence of chemical substance (yeast gene YMR009W, incubated two hours with chemical substance): 1.4; The level of expressed mRNA in the presence of chemical substance/The level of expressed mRNA in the absence of chemical substance (yeast gene YMR067C, incubated two hours with chemical substance): 1.1; The level of expressed mRNA in the presence of chemical substance/The level of expressed mRNA in the absence of chemical substance (yeast gene YMR090W): 3.9; The level of expressed mRNA in the presence of chemical substance/The level of expressed mRNA in the absence of chemical substance (yeast gene YMR095C, incubated two hours with chemical substance): 1.2; The level of expressed mRNA in the presence of chemical substance/The level of expressed mRNA in the absence of chemical substance (yeast gene YMR097C, incubated two hours with chemical substance): 1.5; The level of expressed mRNA in the presence of chemical substance/The level of expressed mRNA in the absence of chemical substance (yeast gene YMR102C, incubated two hours with chemical substance): 1.0; The level of expressed mRNA in the presence of chemical substance/The level of expressed mRNA in the absence of chemical substance (yeast gene YMR107W, incubated two hours with chemical substance): 1.3; The level of expressed mRNA in the presence of chemical substance/The level of expressed mRNA in the absence of chemical substance (yeast gene YMR180C, incubated two hours with chemical substance): 1.8; The level of expressed mRNA in the presence of chemical substance/The level of expressed mRNA in the absence of chemical substance (yeast gene YMR184W, incubated two hours with chemical substance): 1.9; The level of expressed mRNA in the presence of chemical substance/The level of expressed mRNA in the absence of chemical substance (yeast gene YMR191W, incubated two hours with chemical substance): 1.1; The level of expressed mRNA in the presence of chemical substance/The level of expressed mRNA in the absence of chemical substance (yeast gene YMR295C, incubated two hours with chemical substance): 1.0; The level of expressed mRNA in the presence of chemical substance/The level of expressed mRNA in the absence of chemical substance (yeast gene YMR316W, incubated two hours with chemical substance): 1.6; The level of expressed mRNA in the presence of chemical substance/The level of expressed mRNA in the absence of chemical substance (yeast gene YNL044W, incubated two hours with chemical substance): 1.8; The level of expressed mRNA in the presence of chemical substance/The level of expressed mRNA in the absence of chemical substance (yeast gene YNL074C, incubated two hours with chemical substance): 0.6; The level of expressed mRNA in the presence of chemical substance/The level of expressed mRNA in the absence of chemical substance (yeast gene YNL092W, incubated two hours with chemical substance): 0.9; The level of expressed mRNA in the presence of chemical substance/The level of expressed mRNA in the absence of chemical substance (yeast gene YNL115C, incubated two hours with chemical substance): 0.8; The level of expressed mRNA in the presence of chemical substance/The level of expressed mRNA in the absence of chemical substance (yeast gene YNL156C, incubated two hours with chemical substance): 1.2; The level of expressed mRNA in the presence of chemical substance/The level of expressed mRNA in the absence of chemical substance (yeast gene YNL234W, incubated two hours with chemical substance): 1.3; The level of expressed mRNA in the presence of chemical substance/The level of expressed mRNA in the absence of chemical substance (yeast gene YNL281W, incubated two hours with chemical substance): 1.2; The level of expressed mRNA in the presence of chemical substance/The level of expressed mRNA in the absence of chemical substance (yeast gene YNL305C, incubated two hours with chemical substance): 0.7; The level of expressed mRNA in the presence of chemical substance/The level of expressed mRNA in the absence of chemical substance (yeast gene YNR068C, incubated two hours with chemical substance): 1.1; The level of expressed mRNA in the presence of chemical substance/The level of expressed mRNA in the absence of chemical substance (yeast gene YOL032W, incubated two hours with chemical substance): 1.5; The level of expressed mRNA in the presence of chemical substance/The level of expressed mRNA in the absence of chemical substance (yeast gene YOL036W, incubated two hours with chemical substance): 0.8; The level of expressed mRNA in the presence of chemical substance/The level of expressed mRNA in the absence of chemical substance (yeast gene YOL047C, incubated two hours with chemical substance): 1.1; The level of expressed mRNA in the presence of chemical substance/The level of expressed mRNA in the absence of chemical substance (yeast gene YOL071W, incubated two hours with chemical substance): 1.6; The level of expressed mRNA in the presence of chemical substance/The level of expressed mRNA in the absence of chemical substance (yeast gene YOL082W, incubated two hours with chemical substance): 1.1; The level of expressed mRNA in the presence of chemical substance/The level of expressed mRNA in the absence of chemical substance (yeast gene YOL083W, incubated two hours with chemical substance): 1.3; The level of expressed mRNA in the presence of chemical substance/The level of expressed mRNA in the absence of chemical substance (yeast gene YOL117W, incubated two hours with chemical substance): 1.1; The level of expressed mRNA in the presence of chemical substance/The level of expressed mRNA in the absence of chemical substance (yeast gene YOL131W, incubated two hours with chemical substance): 1.1; The level of expressed mRNA in the presence of chemical substance/The level of expressed mRNA in the absence of chemical substance (yeast gene YOL150C): 3.7; The level of expressed mRNA in the presence of chemical substance/The level of expressed mRNA in the absence of chemical substance (yeast gene YOL162W, incubated two hours with chemical substance): 1.6; The level of expressed mRNA in the presence of chemical substance/The level of expressed mRNA in the absence of chemical substance (yeast gene YOR019W, incubated two hours with chemical substance): 1.1; The level of expressed mRNA in the presence of chemical substance/The level of expressed mRNA in the absence of chemical substance (yeast gene YOR197W, incubated two hours with chemical substance): 0.9; The level of expressed mRNA in the presence of chemical substance/The level of expressed mRNA in the absence of chemical substance (yeast gene YPL087W, incubated two hours with chemical substance): 1.0; The level of expressed mRNA in the presence of chemical substance/The level of expressed mRNA in the absence of chemical substance (yeast gene YPL196W, incubated two hours with chemical substance): 1.2; The level of expressed mRNA in the presence of chemical substance/The level of expressed mRNA in the absence of chemical substance (yeast gene YPL206C, incubated two hours with chemical substance): 1.0; The level of expressed mRNA in the presence of chemical substance/The level of expressed mRNA in the absence of chemical substance (yeast gene YPL222W, incubated two hours with chemical substance): 0.7; The level of expressed mRNA in the presence of chemical substance/The level of expressed mRNA in the absence of chemical substance (yeast gene YPR023C, incubated two hours with chemical substance): 0.9; The level of expressed mRNA in the presence of chemical substance/The level of expressed mRNA in the absence of chemical substance (yeast gene YPR151C, incubated two hours with chemical substance): 1.4
